Where “and” joins values, the source holds several entries; their conditions need not be identical. Equal entries are not always repeated. Toxic doses and inconclusive results are not listed.
System: P388 leukemia ip, CD2F1 mice, survival T/C
Assay: NCI In Vivo Anticancer Drug Screen. Data for tumor model P388 Leukemia (intraperitoneal) in CD2F1 (CDF1) mice
Details: endpoint: median survival time, higher = longer survival
In short: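 Mice carrying the transplanted tumor received test compound or vehicle. Survival was recorded in each group, and the value is the treated-group measurement divided by that of the vehicle-treated control group.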

[1] = dose: 25.0 mg/kg/injection, schedule: Q01DX005 (ip), vehicle: Klucel (hydroxypropylcellulose) (HPC)
[2] = dose: 50.0 mg/kg/injection, schedule: Q01DX005 (ip), vehicle: Klucel (hydroxypropylcellulose) (HPC)
[3] = dose: 100.0 mg/kg/injection, schedule: Q01DX005 (ip), vehicle: Klucel (hydroxypropylcellulose) (HPC)
[4] = dose: 200.0 mg/kg/injection, schedule: Q01DX005 (ip), vehicle: Klucel (hydroxypropylcellulose) (HPC)
[5] = dose: 50.0 mg/kg/injection, schedule: Q01DX009 (ip), vehicle: Klucel (hydroxypropylcellulose) (HPC)
[6] = dose: 100.0 mg/kg/injection, schedule: Q01DX009 (ip), vehicle: Klucel (hydroxypropylcellulose) (HPC)
[7] = dose: 200.0 mg/kg/injection, schedule: Q01DX009 (ip), vehicle: Klucel (hydroxypropylcellulose) (HPC)
[8] = dose: 60.0 mg/kg/injection, schedule: Q01DX005 (ip), vehicle: saline with Tween-80
[9] = dose: 100.0 mg/kg/injection, schedule: Q04DX002 (ip), vehicle: saline with Tween-80
[10] = dose: 120.0 mg/kg/injection, schedule: Q01DX005 (ip), vehicle: saline with Tween-80
[11] = dose: 200.0 mg/kg/injection, schedule: Q04DX002 (ip), vehicle: saline with Tween-80
[12] = dose: 240.0 mg/kg/injection, schedule: Q01DX005 (ip), vehicle: saline with Tween-80
[13] = dose: 400.0 mg/kg/injection, schedule: Q04DX002 (ip), vehicle: saline with Tween-80
[14] = dose: 100.0 mg/kg/injection, schedule: Q01DX001 (ip), vehicle: Klucel (hydroxypropylcellulose) (HPC)
[15] = dose: 200.0 mg/kg/injection, schedule: Q01DX001 (ip), vehicle: Klucel (hydroxypropylcellulose) (HPC)
[16] = dose: 400.0 mg/kg/injection, schedule: Q01DX001 (ip), vehicle: Klucel (hydroxypropylcellulose) (HPC)

For CC(=O)OC1NC(=O)C(OC(C)=O)NC1=O (stereo not given), the T/C [1] was 100 % of control, the T/C [2] was 98 % of control and 102 % of control (2×) and the T/C [3] was 101 % of control (2×) and 120 % of control. The T/C [4] was 102 % of control and 107 % of control and 110 % of control.

NCc1c(O)ccc2ccccc12 was tested, and the T/C (dose: 50.0 mg/kg/injection, schedule: Q01DX009 (ip), vehicle: saline with Tween-80) was 105 % of control, the T/C (dose: 100.0 mg/kg/injection, schedule: Q01DX009 (ip), vehicle: saline with Tween-80) was 107 % of control and the T/C (dose: 200.0 mg/kg/injection, schedule: Q01DX009 (ip), vehicle: saline with Tween-80) was 108 % of control.

CCOC(=O)C(Cc1ccc(N(CCCl)CCCl)cc1)NC(=O)C(NC(C)=O)C(C)C (stereo not given) was tested, and the T/C (dose: 5.0 mg/kg/injection, schedule: Q04DX003 (ip), vehicle: water) was 123 % of control, the T/C (dose: 20.0 mg/kg/injection, schedule: Q04DX003 (ip), vehicle: water) was 160 % of control and the T/C (dose: 40.0 mg/kg/injection, schedule: Q04DX003 (ip), vehicle: water) was 241 % of control.

With CC(C)=CC[P+](CC[P+](CC=C(C)C)(c1ccccc1)c1ccccc1)(c1ccccc1)c1ccccc1 the T/C (dose: 6.25 mg/kg/injection, schedule: Q01DX005 (ip), vehicle: saline with Tween-80) was 98 % of control and the T/C (dose: 12.5 mg/kg/injection, schedule: Q01DX005 (ip), vehicle: saline with Tween-80) was 98 % of control.

CCOC(=O)C1C(=O)C(=O)OC1CC(C)C (stereo not given) was tested, and the T/C (dose: 12.5 mg/kg/injection, schedule: Q01DX005 (ip), vehicle: Klucel (hydroxypropylcellulose) (HPC)) was 109 % of control, the T/C [1] was 103 % of control and the T/C [2] was 107 % of control and 113 % of control.

COc1ccc(CC#N)cc1OC was tested, and the T/C (dose: 3.75 mg/kg/injection, schedule: Q01DX009 (ip), vehicle: saline with Tween-80) was 90 % of control, the T/C (dose: 7.5 mg/kg/injection, schedule: Q01DX009 (ip), vehicle: saline with Tween-80) was 90 % of control and the T/C (dose: 15.0 mg/kg/injection, schedule: Q01DX009 (ip), vehicle: saline with Tween-80) was 90 % of control.

In the case of Nc1ccc(NS(=O)(=O)c2cccs2)c(O)c1, the T/C [5] is reported as 97 % of control, the T/C [6] is reported as 94 % of control and the T/C [7] is reported as 105 % of control.

With COC(=O)C1=C2\c3cc4c(cc3CCN2C(=O)c2ccc(OC)c(OC)c2/C(OC)=C\1)OCO4 the T/C (dose: 50.0 mg/kg/injection, schedule: Q01DX005 (ip), vehicle: saline with Tween-80) was 93 % of control, the T/C (dose: 100.0 mg/kg/injection, schedule: Q01DX005 (ip), vehicle: saline with Tween-80) was 90 % of control and the T/C (dose: 200.0 mg/kg/injection, schedule: Q01DX005 (ip), vehicle: saline with Tween-80) was 90 % of control.

For C/C(=N\NC(N)=O)c1ccc(Cl)c(-n2cccc2)c1, the T/C [2] was 92 % of control, the T/C [3] was 91 % of control and the T/C [4] was 94 % of control.

With CCOC(=O)c1nc2nc3cc(OC)c(OC)cc3cc2c(=O)[nH]1 the T/C [1] was 93 % of control, the T/C [2] was 87 % of control and the T/C [3] was 86 % of control and 89 % of control. The T/C [4] was 91 % of control.

With CC(=O)OC(C)(C)c1ccccc1[S+]1OC(C)(C)c2ccccc21 (stereo not given) the T/C (dose: 25.0 mg/kg/injection, schedule: Q01DX001 (ip), vehicle: other) was 101 % of control, the T/C (dose: 50.0 mg/kg/injection, schedule: Q01DX001 (ip), vehicle: other) was 104 % of control and the T/C (dose: 100.0 mg/kg/injection, schedule: Q01DX001 (ip), vehicle: other) was 107 % of control.

With NC(=O)CCNC(=O)OCc1ccccc1 the T/C (dose: 12.5 mg/kg/injection, schedule: Q01DX009 (ip), vehicle: distilled water + Tween-80) was 105 % of control, the T/C (dose: 25.0 mg/kg/injection, schedule: Q01DX009 (ip), vehicle: distilled water + Tween-80) was 103 % of control and the T/C (dose: 50.0 mg/kg/injection, schedule: Q01DX009 (ip), vehicle: distilled water + Tween-80) was 103 % of control. The T/C (dose: 100.0 mg/kg/injection, schedule: Q01DX009 (ip), vehicle: distilled water + Tween-80) was 104 % of control and the T/C (dose: 200.0 mg/kg/injection, schedule: Q01DX009 (ip), vehicle: distilled water + Tween-80) was 100 % of control.

In the case of CC1COC(O)(C2OCOC(C3CC(=O)NC(=O)C3)C2O)C1C (stereo not given), the T/C (dose: 0.01 mg/kg/injection, schedule: Q01DX009 (ip), vehicle: distilled water + alcohol) is reported as 100 % of control, the T/C (dose: 0.03 mg/kg/injection, schedule: Q01DX009 (ip), vehicle: distilled water + alcohol) is reported as 102 % of control and the T/C (dose: 0.06 mg/kg/injection, schedule: Q01DX009 (ip), vehicle: distilled water + alcohol) is reported as 102 % of control. For the same compound, the T/C (dose: 0.12 mg/kg/injection, schedule: Q01DX009 (ip), vehicle: distilled water + alcohol) was 102 % of control.

With CCOC(=O)N(CCN(C(=O)OCC)C1CCCCC1)C1CCCCC1 the T/C [8] was 99 % of control, the T/C [9] was 100 % of control and the T/C [10] was 99 % of control. For the same compound, the T/C [11] was 90 % of control, the T/C [12] was 89 % of control and the T/C [13] was 89 % of control.

O=S(=O)(c1ccc2ccccc2c1)N(CCCCCN(S(=O)(=O)c1ccc2ccccc2c1)S(=O)(=O)c1ccc2ccccc2c1)S(=O)(=O)c1ccc2ccccc2c1 was tested, and the T/C [8] was 104 % of control and the T/C [10] was 94 % of control.

In the case of Nc1ccc2[nH]c3cnccc3c2c1, the T/C (dose: 12.5 mg/kg/injection, schedule: Q01DX009 (ip), vehicle: other) is reported as 103 % of control, the T/C (dose: 25.0 mg/kg/injection, schedule: Q01DX009 (ip), vehicle: other) is reported as 108 % of control and the T/C (dose: 50.0 mg/kg/injection, schedule: Q01DX009 (ip), vehicle: other) is reported as 103 % of control. The T/C (dose: 100.0 mg/kg/injection, schedule: Q01DX009 (ip), vehicle: other) was 103 % of control.

Ic1cc2c(cc1C1CO1)OCO2 (stereo not given) was tested, and the T/C [14] was 103 % of control, the T/C [15] was 99 % of control and the T/C [16] was 96 % of control.

With CC1(C)N=C(N)N=C(N)N1c1ccc(CCCCc2ccc(Cl)c(S(=O)(=O)F)c2)c(Cl)c1 the T/C (dose: 2.0 mg/kg/injection, schedule: Q01DX009 (ip), vehicle: saline with Tween-80) was 154 % of control, the T/C (dose: 8.0 mg/kg/injection, schedule: Q01DX009 (ip), vehicle: saline with Tween-80) was 154 % of control and the T/C (dose: 8.0 mg/kg/injection, schedule: Q01DX009 (ip), vehicle: saline) was 172 % of control and 175 % of control. The T/C (dose: 12.0 mg/kg/injection, schedule: Q01DX009 (ip), vehicle: saline) was 180 % of control and 181 % of control, the T/C (dose: 18.0 mg/kg/injection, schedule: Q01DX009 (ip), vehicle: saline) was 163 % of control and 172 % of control and 180 % of control and the T/C (dose: 27.0 mg/kg/injection, schedule: Q01DX009 (ip), vehicle: saline) was 154 % of control and 172 % of control.

For COc1cc(OC)cc(C2(C(O)C3OC(C)(C)OC3C)SCCCS2)c1 (stereo not given), the T/C [14] was 103 % of control, the T/C [15] was 99 % of control and the T/C [16] was 97 % of control.

With CSc1nc2c(=S)[nH]cnc2s1 the T/C [9] was 95 % of control, the T/C [11] was 92 % of control and the T/C [13] was 92 % of control.

c1ccc(Cc2cccc[n+]2C(c2ccccc2)c2ccccc2)cc1 was tested, and the T/C (dose: 6.25 mg/kg/injection, schedule: Q01DX009 (ip), vehicle: Klucel (hydroxypropylcellulose) (HPC)) was 105 % of control and the T/C (dose: 12.5 mg/kg/injection, schedule: Q01DX009 (ip), vehicle: Klucel (hydroxypropylcellulose) (HPC)) was 87 % of control.

For CC(=O)CC(=O)C(F)(F)F.CC(=O)CC(=O)C(F)(F)F.CC(=O)CC(=O)C(F)(F)F.[Sm], the T/C [5] was 96 % of control, the T/C [6] was 94 % of control and the T/C [7] was 93 % of control. For the same compound, the T/C (dose: 400.0 mg/kg/injection, schedule: Q01DX009 (ip), vehicle: Klucel (hydroxypropylcellulose) (HPC)) was 94 % of control.

In the case of O=C(/C=C/c1cccc([N+](=O)[O-])c1)Nc1cccc(S(=O)(=O)F)c1, the T/C [8] is reported as 102 % of control, the T/C [10] is reported as 93 % of control and the T/C [12] is reported as 91 % of control.

O=c1cc(-c2ccccc2)[nH]c(=S)[nH]1 was tested, and the T/C (dose: 50.0 mg/kg/injection, schedule: Q01DX001 (ip), vehicle: Klucel (hydroxypropylcellulose) (HPC)) was 103 % of control, the T/C [14] was 100 % of control and the T/C [15] was 99 % of control. For the same compound, the T/C [16] was 106 % of control.

With COc1cc2c[n+]3ccc4ccccc4c3c(N)c2cc1OC the T/C (dose: 50.0 mg/kg/injection, schedule: Q04DX003 (ip), vehicle: distilled water + Tween-80) was 97 % of control and the T/C (dose: 100.0 mg/kg/injection, schedule: Q04DX003 (ip), vehicle: distilled water + Tween-80) was 106 % of control.

Source: PubChem BioAssay AID330 (DTP/NCI, 2004)
